Measurements: US7951598B2, “Differential hemolysis of a whole blood sample” (Roche Diagnostics Operations, Inc., priority 2006, dated 2011)

Columns and labels:
[1] = tested on: red blood cells in EDTA-stabilized whole blood; experiment: Visual evaluation of hemolysis (time until hemolysate is clear); format: cell-based
Protocol: Whether the conditions for differential hemolysis are appropriate can be easily and preferably determined by using the following standardized procedure. A whole blood sample with a hematocrit of 40 is diluted 1:10 and mixed 1:1 with the candidate hemolysis reagent. The efficacy of a reagent for bringing about differential hemolysis is seen visually. Upon lysis of the erythrocytes the mixture becomes clear. If precipitation of sample constituents occurs the sample becomes turbid or viscous or both.
(§1) Solution A: Fresh EDTA-stabilized whole blood is diluted with 0.15 molar sodium chloride solution in the ratio 1:10 (50 μL EDTA-blood plus 450 μL sodium chloride solution).
In the case of the addition of a second compound, e.g. potassium iodide (1-Butyl-3-methyl pyridiniumchloride/KJ) the stated salt is added in an approximately equimolar amount.
Hemolysate is prepared by mixing solution A and B in equal volumes, e.g. 500 μL solution A plus 500 μL solution B.
After mixing the hemolysate is inspected visually for turbidometry and clearness immediately after mixing, after 1 minute, 2, 5, 6, 7, 20 and 40 minutes. The time until a clear solution is observed is recorded.

[2] = in vivo; cited from earlier work
[3] = tested on: erythrocytes in whole blood; experiment: Microscopic evaluation of hemolysis, May-Grünwald staining; format: cell-based
Protocol: as §1
Solution B: A solution of the hemolysis reagent in 0.15 molar sodium chloride is prepared where the concentration of the hemolysis reagent is twice as high as the desired final concentration in the hemolysate, e.g. to get a final concentration of 25% of 1-Butyl-4-methylpyridinium tetrafluoroborate a solution of 50% ([…] salt plus 50 mL 0.15 molar sodium chloride in water) is prepared. In the case of the addition of a second anion, e.g. iodide (1-Butyl-3-methylpyridiniumchloride/KJ) the stated salt is added in an equimolar amount.
Hemolysate is prepared by mixing solution A and B in equal volumes, e.g. 20 μL solution A plus 20 μL solution B.
After mixing of the hemolysate a droplet is smeared on a microscope slide, air dried at room temperature and stained with May-Grünwald staining reagent (Merck Cat. No. 1.01424 May-Grünwald's Eosin Methylene Blue Solution).
Microscopy is performed by oil immersion light microscopy (magnification ×630).

[4] = tested on: erythrocytes in whole blood; experiment: Microscopic evaluation of hemolysis, Trypane blue staining; format: cell-based; settings: reagent 25%, 1 in 10 diluted whole blood
Protocol: The integrity of red blood cells can for example be easily assessed by appropriate life stains. In a preferred embodiment according to the present invention trypane blue is used in order to assess the integrity of a red blood cell, membrane. […] The membrane integrity of a red blood cell is easily assessed under the microscope after staining a sample with trypane blue. The percentage of disrupted red blood cells is calculated by counting intact red blood cells before and after the treatment, by then dividing the first number by the latter number and by then multiplying this value by 100. Red blood cells that are solubilized are referred to as lyzed red blood cells or as lyzed erythrocytes.
as §1
Solution B: A solution of the hemolysis reagent in 0.15 molar sodium chloride is prepared where the concentration of the hemolysis reagent is twice as high as the desired final concentration in the hemolysate, e.g. to get a final concentration of 25% of 1-Butyl-4-methylpyridinium tetrafluoroborate a solution of 50% ([…] salt plus 50 mL 0.15 molar sodium chloride in water) is prepared. […]

[5] = in vitro; cited from earlier work
[6] = final concentration 12.5% (weight/volume)
[7] = final concentration 25% (weight/volume), whole blood final dilution 1:20

With `CCCCCCCCOC[n+]1cccc(C(N)=O)c1.[Cl-]` [3-Carbamoyl-1-octyloxymethyl pyridiniumchloride] the “clear after (min.)” value ([1]; final concentration 1.5% (weight/volume)) was “immediately”, the “clear after (min.)” value ([1]; final concentration 6.25% (weight/volume)) was “immediately” and the “clear after (min.)” value [1, 6] was “immediately”.

In the case of `CO[C@H]1C[C@@H]2CC[C@@H](C)[C@@](O)(O2)C(=O)C(=O)N2CCCC[C@H]2C(=O)O[C@H]([C@H](C)C[C@@H]2CC[C@@H](O)[C@H](OC)C2)CC(=O)[C@H](C)/C=C(\C)[C@@H](O)[C@@H](OC)C(=O)[C@H](C)C[C@H](C)/C=C/C=C/C=C/1C` [Sirolimus, sirolimus], the therapeutic trough concentration [2] is given as 5 to 15 µg/L.

For `O` [water, reference compound], the “light microscopy of hemolyzed whole blood, May-Grünwald staining” value ([3]; hemolyzed with water, 1 in 10 diluted whole blood (FIG. 1)) was “Erythrocyte membranes and nuclei are visible”.

With `CCCCCCCC[N+]1(C)CCCC1.[Cl-]` [1-Methyl-1-octyl pyrrolidiniumchloride] the “clear after (min.)” value ([1]; final concentration 2.5% (weight/volume)) was “turbid” and the “clear after (min.)” value [1, 7] was “immediately”.

For `CCCC[n+]1ccc(C)cc1.F[B-](F)(F)F` [1-Butyl-4-methylpyridinium tetrafluoroborate], the “light microscopy of hemolyzed whole blood, May-Grünwald staining” value ([3]; reagent 25%, 1 in 10 diluted whole blood (FIG. 2)) was “No erythrocytes or membranes are left, nuclei are still intact”, the “light microscopy of hemolyzed whole blood, Trypane blue staining” value ([4]; 2.5 min incubation time (FIG. 4a)) was “Only few residual erythrocytes are left” and the “light microscopy of hemolyzed whole blood, Trypane blue staining” value ([4]; 15 min incubation time (FIG. 4b)) was “No erythrocytes or membranes are left”. The “clear after (min.)” value ([1]; final concentration 6% (weight/volume)) was “turbid”, the “clear after” value [1, 6] was 40 min and the “clear after” value [1, 7] was 20 min.

With `CCCCCC[n+]1ccccc1.[Cl-]` [1-Hexylpyridiniumchloride] the “clear after (min.)” value [1, 6] was “turbid” and the “clear after” value [1, 7] was 7 min.

In the case of `C=CC[C@@H]1/C=C(\C)C[C@H](C)C[C@H](OC)[C@H]2O[C@@](O)(C(=O)C(=O)N3CCCC[C@H]3C(=O)O[C@H](/C(C)=C/[C@@H]3CC[C@@H](O)[C@H](OC)C3)[C@H](C)[C@@H](O)CC1=O)[C@H](C)C[C@@H]2OC` [Tacrolimus, tacrolimus], the therapeutic trough concentration [2] is given as 5 to 20 µg/L and the “potency relative to cyclosporin” value [5] is given as “up to 100 times”.

With `CCCCCCCC[n+]1ccccc1.[Cl-]` [N-Octylpyridiniumchloride] the “clear after” value [1, 7] was 2 min.

With `CCCCn1cc[n+](C)c1.F[B-](F)(F)F` [1-Butyl-3-methyl-imidazolium tetrafluoroborate] the “clear after” value [1, 7] was 20 min.

With `CCCC[n+]1cccc(C)c1.[Cl-]` [1-Butyl-3-methyl pyridiniumchloride] the “clear after (min.)” value [1, 7] was “turbid”.

In the case of `COc1c(C)c2c(c(O)c1C/C=C(\C)CCC(=O)OCCN1CCOCC1)C(=O)OC2` [MMF, mycophenolate mofetil], the therapeutic trough concentration [2] is given as 1000 to 3500 µg/L.

In the case of `CCCCCCCCOS(=O)(=O)[O-].CCCCn1cc[n+](C)c1` [1-Butyl-3-methyl-imidazoliumoctylsulfate], the “clear after (min.)” value [1, 7] is reported as “immediately”.
